# In patent publication US12636331B2, “Composition for preventing or treating lung cancer, comprising a compound isolated from Cephalotaxus extract as an active ingredient” (priority 2020, dated 2026):
# What was measured:
# [1] = tested on: A549 tumorspheroids; assay: 3D tumorspheroid growth (CellTiter-Glo 3D); type: cell-based
# Protocol: (§1) A549 and NCI-H460 cell lines were placed in 96-well ultra-low attachment (ULA) plates at 7,000 and 1500 cells/well, and centrifuged at 1000 rpm for 10 minutes. Then, they were cultured in Roswell Park Memorial Institute (RPMI) 1640 medium mixed with 0.5% Matrigel, 10% Fetal Bovine Serum (FBS), and 1× penicillin-streptomycin for 2 days. They were treated with IHT, and the degree of cell growth was measured with CellTiter-Glo 3D (Promega, Madison, WI, USA) reagent after 72 hours, and 2D cultured cells were exposed to IHT at the indicated concentration for 48 hours, and then the cell growth was measured with CellTiter-Glo reagent. The average effective dose ED50 of IHT was determined by analyzing the dose-response curve with GraphPad Prism, and the results are shown in FIG. 2. The scale bar was 100 μm, and all data were expressed as mean±standard deviation.
# (§2) After IHT was treated onto the 3D tumorspheroid of NCI-H460, or siNR4A1 and IHT were treated in combination on the 3D tumorspheroid of A549, the growth inhibition and cell death induction of tumorspheroids were observed. Negative control (siNC) or siNR4AT-transfected A549 and non-transfected NCI-H460 tumorspheroids were treated with IHT at each concentration, and after 48 and 72 hours, the cell growth was measured using CellTiter-Glo 3D cell viability assay kit (Promega). A549 cells were transfected with […] siRNA using Lipofectamine 2000 (Invitrogen), and siNR4A1 of SEQ ID NO: 1 (5′-GAGCUAUUCCAUGCCUACG-3′) and SEQ ID NO: 2 (5′-GGAUACUGGAUACACCCGU-3′) were mixed and used.
# [2] = tested on: NCI-H460 tumorspheroids; assay: 3D tumorspheroid growth (CellTiter-Glo 3D); type: cell-based
# Protocol: as §1, §2
# [3] = tested on: A549 cell line; assay: 2D culture cell growth (CellTiter-Glo); type: cell-based; settings: Homo sapiens; 2D culture A549, 48 hours; read-out: ED50, cell proliferation
# Protocol: as §1
# [4] = tested on: NCI-H460 cell line; assay: 2D culture cell growth (CellTiter-Glo); type: cell-based; settings: Homo sapiens; 2D culture NCI-H460, 48 hours; read-out: ED50, cell proliferation
# Protocol: as §1
# [5] = tested on: p21 protein; assay: Western blot for p21 protein in 2D-cultured NCI-H460; type: cell-based; settings: NCI-H460 2D, 48 hours, low concentrations below the ED50
# Protocol: NCI-H460 cell line was cultured in 2D, treated with IHT at the indicated concentration for 48 hours, and then Western blots were performed to measure changes in p21 protein.
# (§3) The cells were dissolved in a RIPA (radio immunoprecipitation) buffer containing protease inhibitors, phosphatase inhibitors, PMSF (phenylmethylsulfonyl fluoride), and DTT (dithiothreitol), and protein concentration was quantified with a micro BCA test kit. Equal amounts of protein was added to a polyacrylamide gel containing SDS (Sodium dodecyl sulphate), isolated by electrophoresis, and transferred to a polyvinylidene difluoride (PVDF) membrane. The membrane was blocked with a solution containing 5%-TBST (tris-buffered saline with Tween20) milk, and the primary antibody was exposed at 4 degrees Celsius for 16 hours.
# The antibodies used were as follows: β-actin (sc-477778), p53 (sc-126), Bax (sc-526) (Santacruz Biotechnology); cleaved caspase-7 (Asp198) (#9491), cleaved poly (ADP-ribose) polymerase (PARP) (#9541), X chromosome-linked inhibitor of apoptosis (XIAP) (#2045), Survivin (#2808), p21 (#2947), phospho-Akt (#9275), cleaved caspase-9 (#9501), caspase-9 (#9502), caspas-8 (#9746), phospho-Stat3 (#9145) (Cell Signaling Technology). […]
# [6] = tested on: NCI-H460 tumorspheroids; assay: LIVE/DEAD cell death staining of tumorspheroids; type: cell-based; settings: NCI-H460 tumorspheroids, 1,3,5 uM IHT, 72 hours
# Protocol: (§4) After the IHT was treated with NCI-H460 and A549 tumorspheroids for 72 hours, the cell death was observed using LIVE/DEAD Viability/Cytotoxicity Kit (Thermo Scientific). Live cells were stained with green fluorescence-labeled calcein-AM, dead cells were stained with red fluorescence-labeled ethidium homodimer-1 (EthD-1), and images were taken at 100× magnification using the Operetta High Content Screening (HCS) System.
# [7] = tested on: A549 tumorspheroids; assay: LIVE/DEAD cell death staining of tumorspheroids; type: cell-based; settings: 72 hours
# Protocol: as §2, §4
# [8] = tested on: A549 tumorspheroids; assay: Apoptosis by Cell Death detection ELISA kit; type: cell-based; settings: 72 hours
# Protocol: (§5) An experiment was designed to confirm whether cell death induced in 3D tumorspheroids was apoptosis. Induction of apoptosis was examined after treating NCI-H460 tumorspheroids with IHT or treating A549 tumorspheroids with IHT along with siNC or siNR4A1. NCI-H460 and siRNA-treated A549 tumorspheroids were treated with IHT at the indicated concentrations for 72 hours, and then apoptosis was measured using a Cell Death detection ELISA kit. Further, after IHT treatment for 72 hours, single cells were isolated from tumorspheroids, stained with Annexin V and 7-AAD, and analyzed by a flow cytometry. Apoptotic cell population was represented as the ratio of cells in the early apoptotic processes that are annexin V-positive/7-AAD-negative, and terminal apoptotic process positive for both annexin V/7-AAD (FIG. 5). All data are expressed as mean±standard deviation. *p<0.05 indicates a significant difference compared to a control group, and **p<0.01 indicates a significant difference compared to a control group.
# [9] = tested on: NCI-H460 tumorspheroids; assay: Apoptosis by Cell Death detection ELISA kit; type: cell-based; settings: 72 hours
# Protocol: as §5
# [10] = tested on: A549 tumorspheroids; assay: Annexin V / 7-AAD flow cytometry; type: cell-based; settings: 72 hours
# Protocol: as §5
# Further, using the phenomenon that annexin V was exposed to the outside of the cell membrane in the early stage of apoptosis, cells were stained with annexin V, stained with 7-Amino-Actinomycin D (7-AAD) penetrating into dead cells, and analyzed with a flow cytometry, thus showing apoptosis and cell death.
# [11] = tested on: A549 tumorspheroids; assay: Mitochondrial membrane potential (JC-1, flow cytometry); type: cell-based; settings: IHT 1 uM and siNR4A1 simultaneously, 48 hours
# Protocol: (§6) In the induction of apoptosis by the intrinsic pathway, a decisive process is the release of cytochrome C inside mitochondria to the outside due to changes in mitochondrial membrane potential. After 48 hours of treatment to measure mitochondrial membrane potential changes, tumorspheroids were isolated into single cells and stained with JC-1, and flow cytometry was used to measure the percentage of mitochondria-damaged cells. The percentage of cells in which JC-lexists as a single entity, meaning a decrease in mitochondrial membrane potential, was indicated. In addition, A549 tumorspheroids transfected with negative control (siNC) or siNR4A1 and NCI-H460 tumorspheroids were treated with IHT for 48 hours, and then subjected to Western blot analysis for apoptosis-related protein changes, and the results are shown in FIG. 6.
# [12] = tested on: NCI-H460 tumorspheroids; assay: as above; type: cell-based; settings: 3 uM IHT, 48 hours
# Protocol: as §6
# [13] = tested on: A549 tumorspheroids; assay: Western blot of apoptosis-related proteins; type: cell-based
# Protocol: as §3
# (§7) The antibodies used were as follows: β-actin (sc-477778), p53 (sc-126), Bax (sc-526) (Santacruz Biotechnology); cleaved caspase-7 (Asp198) (#9491), cleaved poly (ADP-ribose) polymerase (PARP) (#9541), X chromosome-linked inhibitor of apoptosis (XIAP) (#2045), Survivin (#2808), p21 (#2947), phospho-Akt (#9275), cleaved caspase-9 (#9501), caspase-9 (#9502), caspas-8 (#9746), phospho-Stat3 (#9145) (Cell Signaling Technology).
# (§8) Subsequently, the membrane was washed with TBSP, and then exposed to the secondary antibody conjugated with HRP (horseradish peroxidase, Santacruz Biotechnology) at room temperature for 1 hour, washed, and film-developed using an ECL (enhanced chemiluminescence, Amersham) kit to observe the bands.
# as §6
# [14] = tested on: NCI-H460 tumorspheroids; assay: Western blot of apoptosis-related proteins; type: cell-based
# Protocol: as §3, §7, §8, §6
# [15] = tested on: C. elegans jgIs25 (EGFR T790M-L858R); assay: Multivulva (Muv) formation in C. elegans with EGFR double mutation; type: in vivo
# Description: In non-small cell lung cancer patients with EGFR (epidermal growth factor receptor) exon21 mutation (L858R), the therapeutic effect of EGFR-TKI (tyrosine kinase inhibitor) is excellent. However, tolerance develops quickly, one mechanism of which is because the second mutation (L858R, T790M) occurs in EGFR. C. elegans with EGFR double mutation (L858R, T790M) causes cell proliferation (multivulva formation). It was observed whether cell proliferation could be inhibited upon IHT treatment. This is an in vivo system that can predict the therapeutic effect of lung cancer resistant to EGFR-TKIs, by introducing genetic mutations observed in cells showing drug resistance to the EGFR-TKI (tyrosine kinase inhibitor) used as a therapeutic agent for human lung cancer.
# After IHT treatment to C. elegans jgIs25, observations were performed using a differential interference contrast (DIC) microscope. 0.5% DMSO was used as a vehicle control. […] 0.1% DMSO as a control or 5 μM IHT was. Data are expressed as mean±standard error, **P<0.01 and ***P<0.001.
# [16] = tested on: A549 xenograft tumors; assay: A549 xenograft tumor growth; type: in vivo; settings: athymic nude mice, intratumoral IHT 20 μg/kg (500 ng) twice a week with siNR4A1 once a week, 4 weeks
# Protocol: Further, A549 cells (5×10^6) were inoculated into the dorsal side of athymic nude mice, and when the tumor size reached 100-150 mm^3, siRNA (50 pmoles) and IHT (500 ng) were intratumorally administered once a week and twice a week, respectively, for 4 weeks. The tumor size was monitored twice a week, and tumor volume was calculated by the following Equation 3. […] V(mm^3)=length×width×width/2 [Equation 3]
# [17] = tested on: A549 tumorspheroids; assay: Combined treatment of cisplatin and IHT, tumorspheroid cell growth; type: cell-based
# Protocol: A549 tumorspheroids were grown for 3 days, then subjected to the combined treatment of cisplatin and IHT at the indicated concentrations.
# [18] = A549 tumorspheroids with inhibition of NR4A1 expression (siNR4A1), IHT 1 uM
smiles,measurement,setting,value
"COC(=O)[C@@H](O)[C@](O)(CCC(C)C)C(=O)O[C@@H]1C(OC)=C[C@]23CCCN2CCc2cc4c(cc2C13)OCO4 (stereo partly shown) [IHT, isoharringtonine]",growth inhibition of tumorspheroids,[1]; [18],rapid growth-inhibitory effect
same,growth inhibition of tumorspheroids,"[1]; A549 tumorspheroids, IHT alone (siNC), 48 and 72 hours",did not have a significant growth-inhibitory effect
same,EC50,"[1]; Homo sapiens, A549 3D tumorspheroid, 72 hours, ED50 'predicted'",9600 ± 1120 nM
same,EC50,"[2]; Homo sapiens, 3D tumorspheroid of NCI-H460, 72 hours, read-out: average effective amount (ED50), tumorspheroid growth",143 ± 40 nM
same,growth inhibition of tumorspheroids,"[2]; NCI-H460 tumorspheroids, 1,3,5 uM IHT, 48 and 72 hours",effectively induced at all concentrations
same,EC50,[3],481 ± 50 nM
same,EC50,[4],94 ± 20 nM
same,change in p21 protein,[5],increased p21
same,cell death of tumorspheroids,[6],effectively induced at all concentrations
same,cell death of tumorspheroids,[7]; [18],sharply induced cell death
same,cell death of tumorspheroids,"[7]; A549 tumorspheroids, IHT alone",did not induce cell death
same,"apoptosis (DNA fragments, ELISA)",[8]; IHT alone,apoptosis was not induced
same,"apoptosis (DNA fragments, ELISA)","[8]; simultaneous treatment with siNR4A1, IHT 1 uM",sharply increased apoptosis
same,"apoptosis (DNA fragments, ELISA)",[9],increased from 1 uM in a dose-dependent manner
same,apoptosis (annexin V/7-AAD),[10]; IHT alone,did not induce apoptosis
same,apoptosis (annexin V/7-AAD),"[10]; simultaneous treatment with siNR4A1, IHT 1 μM",sharply increased apoptosis
same,mitochondrial membrane potential,[11],induced a decrease in mitochondrial membrane potential
same,mitochondrial membrane potential,[12],changes in mitochondrial membrane potential were induced
same,cleavage of caspase-9,"[13]; IHT+siNR4A1, 48 hours",induced the cleavage of caspoase-9
same,Mcl-1 and XIAP protein,"[13]; both IHT and siNR4A1, 48 hours",induced a reduction of Mcl-1 and XIAP
same,phospho-Akt,"[13]; both IHT and siNR4A1, 48 hours",reduction of phospho-Akt
same,Bcl-2 and Mcl-1 protein,[14]; 48 hours,induces the reduction of Bcl-2 and Mcl-1
same,Survivin and XIAP protein,[14]; 48 hours,induces the decrease of Survivin and XIAP
same,p53 protein,[14]; 48 hours,induces an increase in p53
same,phospho-Akt,[14]; 48 hours,reduction of phospho-Akt
same,cleavage of caspase-9,[14]; IHT 48 hours,induced the cleavage of caspoase-9
same,multivulva formation,"[15]; C. elegans jgIs25, high concentrations of IHT",multivulva formation was significantly inhibited
same,multivulva formation,"[15]; C. elegans jgIs25, low IHT concentration (5 μM) with sinhr-6 (nhr-6 RNAi)",multivulva formation was significantly inhibited
same,multivulva formation,"[15]; C. elegans jgIs25, low concentration (5 uM) IHT",multivulva formation was not inhibited
same,xenograft tumor suppression (tumor volume),[16],tumor suppressive effects were observed
same,cell growth inhibition,"[17]; A549 tumorspheroids, 10 μM IHT in combination with 10 μM cisplatin, 3 days",stronger inhibition of cell growth
same,cell growth inhibition,"[17]; A549 tumorspheroids, 10 μM IHT, 3 days",very effectively inhibited
same,inhibition at 1 µM,"[17]; Homo sapiens, A549, 72 h, read-out: cell growth inhibition",~48%
"N.N.[Cl][Pt][Cl] [cisplatin, reference compound]",inhibition of tumorspheroid growth,"[17]; A549 tumorspheroids, 30 μM cisplatin alone, 3 days",significant but minute inhibition of growth
